Results as given in patent US7556935B2 (Dana-Farber Cancer Institute, Inc., priority 2001, dated 2009).
Residues, ends and D or L forms follow the SMILES beside them. *: point of attachment. Cbz = O=C(OCc1ccccc1)*

Columns and labels:
[1] = test system: grp78; assay: grp78 expression in the ER fraction, ER stress; assay type: cell-based
Procedure: (§1) Cells were treated with A23187 (Sigma) or Brefeldin A (Sigma).
(§2) Isolation of the ER fraction: Cells were washed with PBS, lysed in homogenization buffer (50 mM Tris-HCl, pH 8.0, 1 mM b-mercaptoethanol, 1 mM EDTA, 0.32 M sucrose and 0.1 mM PMSF), and then centrifuged at 5,000×g for 10 minutes. The supernatant was collected and centrifuged at 105,000×g for 1 hour. […] The resulting supernatant was used as the ER fraction.

[2] = test system: c-Abl; assay: c-Abl targeting to mitochondria under ER stress, immunofluorescence and immunoblot; assay type: cell-based
Procedure: as §1
Digital confocal immunofluorescence microscope: Cells grown on poly-D-lysine coated glass coverslips were fixed (3.7% formaldehyde in PBS, pH 7.4; 10 minutes), permeabilized (0.2% Triton X-100; 10 min), blocked for 30 minutes in media containing serum. After rinsing with PBS, immunostaining was performed by incubating the cells with 50 ng/slide of anti-c-Abl (K-12 rabbit polyclonal; Santa Cruz) and anti-grp-78 (C-20 goat polyclonal; Santa Cruz). For c-Abl and calreticulin staining, cells were incubated first with anti-c-Abl alone for 1 hour followed by blocking for 30 minutes in media containing serum. After washing with PBS, cells were then incubated with anti-calreticulin (rabbit polyclonal; StressGen). Finally, cells were incubated with a 1:250 dilution of CY-3 or Fluorescein (FITC)-conjugated anti-rabbit or anti-goat secondary antibodies (Jackson ImmunoResearch) for 1 hour. Mitochondria were stained with 0.006 ng/slide Mitotracker Green FM (Molecular Probes). Nuclei were stained with 4,6-diamino-2-phenylindole (DAPI; 1 mg/ml in PBS). Coverslips were mounted onto slides with 0.1 M Tris (pH 7.0) in 50% glycerol. Cells were visualized by digital confocal immunofluorescence and images were captured with cooled CCD camera mounted on a Zeiss Axioplan 2 microscope. Images were deconvolved using Slidebook software (Intelligent Imaging Innovations, Inc., Denver, Colo.).
(§3) The supernatant was collected and centrifuged at 10,000×g for 10 minutes. […] Protein concentration was determined by the Bio-Rad protein estimation kit.

[3] = test system: c-Abl; assay: c-Abl levels in the ER fraction, ER stress; assay type: cell-based
Procedure: as §1, §2

[4] = test system: c-Abl; assay: Mitochondrial c-Abl kinase activity, GST-Crk(120-225) phosphorylation, ER stress; assay type: cell-based; settings: anti-c-Abl immunoprecipitates of mitochondrial fraction
Procedure: as §3
Analysis of c-Abl activity: Cell lysates were prepared as described in Example 1 and subjected to immunoprecipitation with anti-c-Abl (K-12; Santa Cruz). The immunoprecipitates were resuspended in kinase buffer (see Example 1) containing […] of [g-32P]ATP and GST-Crk(120-225) or GST-Crk(120-212) for 15 minutes at 30° C. The reaction products were analyzed by SDS-PAGE and autoradiography.

[5] = test system: cytochrome c; assay: Cytochrome c release in MEFs under ER stress; assay type: cell-based, mouse; settings: wild-type MEFs
Procedure: as §1
(§4) Isolation of cytoplasmic and nuclear fractions: The cytoplasmic and nuclear fractions were isolated as described in Example 1.

[6] = test system: c-Abl; assay: c-Abl levels in cytoplasmic and nuclear fractions, ER stress; assay type: cell-based
Source text: as §4

[7] = test system: MEFs; assay: Apoptosis by sub-G1 DNA in MEFs under ER stress; assay type: cell-based, mouse
Procedure: Apoptosis assays: DNA content was assessed by staining ethanol-fixed cells with propidium iodide and monitoring by FACScan (Becton-Dickinson).

[8] = molecular target: PKCγ (Homo sapiens, UniProt P05129); assay: Cytoplasmic or mitochondrial PKCγ levels in U-937 cells, immunoblot; settings: H2O2
[9] = molecular target: PKCd (Mus musculus, UniProt P28867); settings: NIH3T3 cells, H2O2
Chain of PKCd (Mus musculus, UniProt P28867) (P28867 whole entry): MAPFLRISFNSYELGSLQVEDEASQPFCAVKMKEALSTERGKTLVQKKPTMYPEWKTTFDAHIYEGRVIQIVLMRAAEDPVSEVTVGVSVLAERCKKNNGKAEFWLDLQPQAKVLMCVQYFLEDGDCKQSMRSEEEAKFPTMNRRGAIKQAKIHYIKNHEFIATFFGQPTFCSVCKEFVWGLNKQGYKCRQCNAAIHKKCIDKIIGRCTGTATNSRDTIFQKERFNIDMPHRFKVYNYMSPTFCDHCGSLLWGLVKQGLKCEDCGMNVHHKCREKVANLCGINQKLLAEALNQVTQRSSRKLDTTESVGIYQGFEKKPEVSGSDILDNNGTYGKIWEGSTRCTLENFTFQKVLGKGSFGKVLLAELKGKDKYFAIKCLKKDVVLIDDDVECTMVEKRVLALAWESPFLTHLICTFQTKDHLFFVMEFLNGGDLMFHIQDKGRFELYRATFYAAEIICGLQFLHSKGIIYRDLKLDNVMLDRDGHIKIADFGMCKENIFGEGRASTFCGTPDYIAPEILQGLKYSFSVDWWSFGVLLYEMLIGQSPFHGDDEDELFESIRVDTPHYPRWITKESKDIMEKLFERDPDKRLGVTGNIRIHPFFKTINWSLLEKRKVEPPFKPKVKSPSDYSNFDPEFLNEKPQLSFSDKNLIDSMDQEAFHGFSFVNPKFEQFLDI
Procedure: (§5) Transfections were performed with Superfect (Qiagen).
(§6) The supernatants (S1) were collected.

[10] = test system: ATP levels; settings: wild-type and c-Abl+ cells, H2O2
Procedure: Quantitation of ATP: ATP levels were measured using an ATP Determination Kit (Molecular Probes).

[11] = test system: c-Abl; assay: c-Abl translocation to mitochondria in MEFs, oxidative stress; assay type: cell-based, mouse
Procedure: Cells were treated with 1 mM H2O2 (Sigma) and 30 mM N-acetyl-L-cysteine (NAC; Sigma). Transient transfections were performed in the presence of calcium phosphate.
Immunofluorescence microscopy: Cells were plated onto poly D-lysine coated glass coverslips 1 day prior to H2O2 treatment (1 hour) and then fixed with 3.7% formaldehyde/PBS (pH 7.4) for 10 minutes. Cells were washed with PBS, permeabilized with 0.2% Triton X-100 for 10 minutes, washed again and incubated for 30 minutes in complete medium. The coverslips were then incubated with […] of anti-c-Abl (K-12) for 1 hour followed by Texas Red-goat anti-rabbit Ig (H+L) conjugate (Molecular Probes, Eugene, Oreg.). Mitochondria were stained with 100 nM Mitotracker Green FM (Molecular Probes, OR). Nuclei were stained with 4,6-diamino-2-phenylindole (DAPI; 1 mg/ml in PBS). Coverslips were mounted onto slides with 0.1 M Tris (pH 7.0) in 50% glycerol. Cells were visualized by digital confocal immunofluorescence and images were captured with a cooled CCD camera mounted on a Zeiss Axioplan 2 microscope. Images were deconvolved using Slidebook software (Intelligent Imaging Innovations, Inc., Denver, Colo.).
Protein concentration was determined by the Bio-Rad protein estimation kit.
Preparation of cell lysates: Whole cell lysates (WCL) were prepared as described (Kharbanda et al. (1995) Nature 376, 785-788) and analyzed for protein concentration.
Immunoprecipitation and immunoblot analysis. Soluble proteins ([…]) were incubated with anti-c-Abl (K-12; Santa Cruz Biotechnology) for 1 hour and precipitated with protein A-sepharose for 30 minutes. Immunoprecipitates and lysates ([…]) were resolved by SDS-PAGE and analyzed by immunoblotting with anti-c-Abl (24-11; Santa Cruz), anti-HSP60 (Stressgen, Victoria, British Columbia), anti-b-actin (Sigma) anti-PCNA (Calbiochem), anti-PDGF receptor (Oncogene) and anti-PKCd (Santa Cruz).

[12] = test system: MCF-7/neo cells; assay: Apoptosis by sub-G1 DNA content in MCF-7/neo cells
[13] = test system: cytochrome c; assay: Cytochrome c release in U-937 cells, immunoblot of cytoplasmic fractions; assay type: cell-based, human; settings: U-937 cells, agent alone
Procedure: (§7) Cells were also treated with 10 μM rottlerin (Calbiochem).
as §5
(§8) The cells were disrupted by Douce homogenization.

[14] = test system: mitochondrial transmembrane potential; assay: Mitochondrial transmembrane potential, Rhodamine 123 staining, MEFs; settings: wild-type cells, H2O2
[15] = test system: PKCζ; assay: Cytoplasmic or mitochondrial PKCζ levels in U-937 cells, immunoblot; settings: H2O2
[16] = molecular target: PKCd (Homo sapiens, UniProt Q05655); assay: PKCd translocation to mitochondria in U-937 cells, immunoblot of fractions; assay type: cell-based; set-up: subjecting cytoplasmic and mitochondrial fractions to immunoblotting with anti-PKC antibodies; endogenous in cells; host or cells: U-937; settings: 1 mM H2O2
Chain of PKCd (Homo sapiens, UniProt Q05655) (Q05655 whole entry): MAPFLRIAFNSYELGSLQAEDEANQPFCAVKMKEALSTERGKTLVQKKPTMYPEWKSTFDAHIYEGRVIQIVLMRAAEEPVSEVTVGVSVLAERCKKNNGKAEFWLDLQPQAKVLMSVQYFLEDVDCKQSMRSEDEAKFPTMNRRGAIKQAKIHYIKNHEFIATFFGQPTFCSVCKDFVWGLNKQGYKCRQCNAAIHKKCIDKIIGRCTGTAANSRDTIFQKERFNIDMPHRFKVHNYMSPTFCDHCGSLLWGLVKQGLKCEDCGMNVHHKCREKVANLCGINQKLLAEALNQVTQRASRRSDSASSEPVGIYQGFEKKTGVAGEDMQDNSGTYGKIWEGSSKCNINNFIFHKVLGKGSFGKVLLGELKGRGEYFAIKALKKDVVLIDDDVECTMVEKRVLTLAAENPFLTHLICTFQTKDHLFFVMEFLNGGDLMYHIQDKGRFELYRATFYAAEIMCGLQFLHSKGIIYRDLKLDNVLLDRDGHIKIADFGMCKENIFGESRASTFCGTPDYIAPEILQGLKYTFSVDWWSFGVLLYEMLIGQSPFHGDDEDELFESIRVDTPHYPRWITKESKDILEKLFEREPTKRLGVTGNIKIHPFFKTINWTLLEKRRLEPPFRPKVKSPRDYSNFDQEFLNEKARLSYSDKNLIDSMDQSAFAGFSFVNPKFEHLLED
Procedure: as §7
Mitochondria were stained with 0.006 ng/slide of Mitotracker Green FM (Molecular Probes). The slides were analyzed using a Zeiss Auxiphot fluorescence microscope coupled to a CCD camera and a power Macintosh 8100. Image analysis was performed using the IPLab Spectrum 3.1 software (Signal Analytics).
as §5, §8, §6
Mitochondria were stained with 0.006 ng/slide of Mitotracker Green FM (Molecular Probes). The slides were analyzed with a Zeiss Auxiphot fluorescence microscope coupled to a CCD camera and a power Macintosh 8100. Image analysis was performed using the IPLab Spectrum 3.1 software (Signal Analytics).

[17] = test system: c-Abl; assay: c-Abl activity in cytoplasts devoid of nuclei; assay type: cell-based
Procedure: (§9) Analysis of kinase activity: Cell lysates were prepared in lysis buffer (10 mM Tris-HCl, pH 7.5, 10 mM NaCl, 1 mM DTT, 0.1 mM EDTA, 3 mM MgCl2, 0.5 mM PMSF, 5 μg/ml leupeptin) containing 0.5% Nonidet P-40 and subjected to immunoprecipitation as described (Kharbanda et al. (1997) Nature 386, 732-735) with anti-c-Abl (sc-23; Santa Cruz) or mouse IgG (Santa Cruz). The immunoprecipitates were resuspended in kinase buffer (20 mM HEPES, pH 7.4, 10 mM MgCl2, 10 mM MnCl2) containing 2.5 μCi [g-32P]ATP and GST-Crk(120-225) or GST-Crk(120-212) for 20 minutes at 30° C. Anti-PKCd (sc-937; Santa Cruz) and anti-ERK1 (sc-93; Santa Cruz) immunoprecipitates were analyzed by using histone H1 and myelin basic protein (Upstate Biotecnology Inc.), respectively, as substrates. The reaction products were analyzed by SDS-PAGE and autoradiography.

[18] = test system: cytochrome c; settings: wild-type MEFs
Procedure: (§10) Cell culture: COS7 cells and mouse embryonic fibroblasts (MEFs) derived from wild-type and c-Abl^−/− mice were cultured in Dulbecco's modified Eagle's medium containing 10% heat-inactivated fetal calf serum, 2 mM L-glutamine, 100 units/ml penicillin and 100 μg/ml streptomycin. DLD1 cells were grown as described (Polyak et al. (1997) Nature 389, 300-305). Cells were treated with H2O2 (Sigma), 30 mM N-acetyl-L-cysteine (NAC; Sigma) or 10 μM cis-platinum (Sigma).

[19] = test system: c-Abl; assay: c-Abl immune complex kinase assay, phosphorylation of GST-Crk(120-225), COS7 cells; assay type: cell-based
Procedure: as §10, §9

[20] = test system: 26S proteosome; assay: In vitro Ub-proteosome system, degradation of catalase; assay type: biochemical
Source text: As a control, degradation was inhibited when [g-S]ATP was substituted for ATP to prevent ubiquitination. […] Lactacystin, another proteosome inhibitor, was used to assess degradation of catalase in cells.

CNc1ccc2oc(C[C@H]3O[C@@]4(CC[C@H]3C)O[C@H]([C@H](C)C(=O)c3ccc[nH]3)[C@H](C)C[C@H]4C)nc2c1C(=O)O [A23187]
expression of grp78 [1]: increases in expression of grp78
translocation of c-Abl to mitochondria, intracellular fluorescence ([2]; anti-c-Abl and Mitotracker signals): translocation of c-Abl to mitochondria
c-Abl protein in the mitochondrial fraction, immunoblot ([2]; mitochondrial fraction): time-dependent increase
c-Abl levels in the ER fraction [3]: time-dependent decrease
mitochondrial c-Abl activity [4]: increases in mitochondrial c-Abl activity
release of cytochrome c [5]: induces the release of cytochrome c
c-Abl levels in the cytoplasm or nucleus [6]: little if any effect
induction of apoptosis ([7]; c-Abl−/− cells): little effect
apoptosis, sub-G1 DNA ([7]; wild-type cells): induction of sub-G1 DNA

OO [H2O2, hydrogen peroxide]
mitochondrial levels of PKCγ [8]: little if any effect
localization of PKCd to mitochondria [9]: localization of PKCd to mitochondria
ATP levels [10]: depletion of ATP
total c-Abl that localizes to mitochondria ([11]; MEFs following H2O2, approximately 4% without treatment): approximately 20%
increase in mitochondrial c-Abl protein, densitometric scanning ([11]; MEFs, 0.5 to 1 hour of H2O2 treatment): > 5 fold
apoptosis [12]: induction of apoptosis
cytochrome c release [13]: induces cytochrome c release
mitochondrial transmembrane potential (Ψ) [14]: substantially diminished
mitochondrial levels of PKCζ [15]: little if any effect
mitochondrial PKCd [16]: increases in mitochondrial PKCd
c-Abl activity in cytoplasts [17]: induction of c-Abl activity
cytochrome c in cytoplasmic lysates [18]: increased levels of cytochrome c
stimulation of the Crk kinase activity of anti-c-Abl immunoprecipitates ([19]; COS7 cells exposed to H2O2, GST-Crk(120-225) substrate): 4-5 fold
time of maximal induction of c-Abl activity ([19]; H2O2 exposure): 30 to 60 min
induction of c-Abl activity ([19]; exposure to 1 mM H2O2): 5 fold

CC(C)C[C@@H](C=O)NC(=O)[C@H](CC(C)C)NC(=O)[C@H](CC(C)C)NC(=O)OCc1ccccc1 [MG132] (Cbz-Leu-Leu-Leu-aldehyde)
degradation of catalase [20]: blocked
